# Data as given in patent publication US20120010158A1, “TUMOR NECROSIS FACTOR INHIBITING PEPTIDES AND USES THEREOF” (PANACEA BIOTEC LTD., priority 2008, published 2012).
# Residues, ends and D or L forms follow the SMILES beside them.
# Experiments:
# [1] = system: collagen induced arthritis; assay: Murine model of collagen induced arthritis; assay type: in vivo, C57BL/6 mice; details: for anticollagen IgG1/IgG2a ratio after therapy: vs PBS treated arthritic animals, FIG. 8b
# Method: Male C57BL/6 mice obtained from animal house at Lalru, Panacea Biotec were used to develop a murine model of rheumatoid arthritis. Mice were intradermally immunized with 150 μg of chicken type-II collagen (Sigma) emulsified in complete Freunds adjuvant (CFA) (Sigma). On day 17 after primary immunization, a booster immunization with 100 μg of chick type II collagen in incomplete Freunds adjuvant was administered to animals (Ethan M Shevach, Curr. Prot. Immunol. 2002: 15.0.1-15.0.6; Inglis J et al, 2008 Nature Protocols, 4:612-618). Increase in paw thickness as compared to controls (healthy, male C57BL/6 mice) and presence of anti-collagen IgG antibodies were the parameters to assess development of arthritis. Paw thickness in animals was measured using digital Vernier Calipers and anticollagen antibodies were measured in the mouse serum on day 35 after immunization.
# Chicken type-II collagen (sigma) was coated onto ELISA plates at 1 μg/ml in PBS and incubated overnight at 4° C. After three washes in PBS-0.05% Tween 20 (PBS-T), serum from collagen, vehicle (CFA) and PBS (control) injected mice was added to separate wells at dilution of 1:100. Plate was incubated at room temperature for 2 h. After 5 washes in PBS-T rabbit antimouse IgG HRP (Bethyl Laboratories) was added to wells at 1:10000 dilutions and incubated at room temperature for 45 min. After washing the plate in PBS-T, OPD (ortho-phenyl diamine) as substrate was added and colour development observed. Colour development was stopped by 2N HCl. Absorbance was recorded at 490 nm (Ethan M Shevach, Cum Prot. Immunol. 2002: 15.0.1-15.0.6).
# Determination of optimum dose and schedule of peptide with Sequence ID-6 was performed in a murine model of collagen induced arthritis (as prepared above). Arthritic mice were randomized according to paw thickness and divided into separate groups of 4-5 animals for intravenous administration of peptide sequence ID-6.
# Efficacy of peptide with sequence ID-6 and sequence ID-2 was compared with Etanercept (Marketed and approved TNF-alpha inhibiting agent with the brand name “Enbrel”) using a murine model of collagen induced arthritis (As prepared and described above). Peptides of Sequence ID-6, Sequence ID-2 and Etanercept were intravenously administered to the arthritic mice at a dose of 5 mg/kg three times in first week followed by once every week for three weeks.
# Development of disease in collagen induced arthritis is accompanied by an increase in Th1 or proinflammatory response. IgG1/IgG2a levels were measured to determine that whether treatment with the peptides of the present invention and Etanercept improved clinical disease in murine model by decreasing Th1 response. Lower IgG1/IgG2a ratio would indicate down regulation of Th1 or proinflammatory response.
# [2] = system: adjuvant induced arthritis; assay: Rat model of adjuvant induced arthritis; assay type: in vivo, Wistar rats; details: 2.5 mg/kg once every day for 6 days, then 3 doses every alternate day; for clinical score: p<0.05, score 0-4, FIG. 9b; for paw thickness: vs PBS treated arthritic rats, FIG. 9a
# Method: In vivo efficacy of peptide with sequence ID-6 was evaluated in a rat model of “adjuvant” induced arthritis. This model is widely used for developing and testing anti-inflammatory drugs. Adjuvant arthritis (AA) in rats mimics features of inflammatory arthritis in humans (Pearson et al, 1956, Proc. Soc. Exp. Biol. Med. 112:95-10). AA was induced in male Wistar rats by intradermal immunization with 150 μg of complete freunds adjuvant followed by a booster immunization at day 7 with incomplete freunds adjuvant. Arthritis was evaluated in animals by clinical scoring and measurement of paw and joint thickness using digital vernier calipers. The clinical score was assigned according to following criteria: 0=no erythema or swelling 1=slight erythema or swelling of one of toes or fingers 2=erythema and swelling of more than one toe or finger 3=erythema and swelling of the ankle or wrist 4=complete erythema and swelling of toes or fingers and ankle or wrist and inability to bend the ankle or wrist. Arthritic rats were administered with peptide Sequence ID-6 at a dose of 2.5 mg/kg, once every day for 6 days in the first week followed by 3 doses every alternate day in the second week. Another group of arthritic animals received Etanercept (Et) in similar manner.
# TNF-R1 = target: T1, TNF-R1 (Homo sapiens, UniProt P19438); assay: Binding of peptide to TNF-R1 on U937 cells by flow cytometry; details: untreated 83%
# T1 construct: endogenous in cells; host or cells: U937
# T1 sequence (P19438 30-455): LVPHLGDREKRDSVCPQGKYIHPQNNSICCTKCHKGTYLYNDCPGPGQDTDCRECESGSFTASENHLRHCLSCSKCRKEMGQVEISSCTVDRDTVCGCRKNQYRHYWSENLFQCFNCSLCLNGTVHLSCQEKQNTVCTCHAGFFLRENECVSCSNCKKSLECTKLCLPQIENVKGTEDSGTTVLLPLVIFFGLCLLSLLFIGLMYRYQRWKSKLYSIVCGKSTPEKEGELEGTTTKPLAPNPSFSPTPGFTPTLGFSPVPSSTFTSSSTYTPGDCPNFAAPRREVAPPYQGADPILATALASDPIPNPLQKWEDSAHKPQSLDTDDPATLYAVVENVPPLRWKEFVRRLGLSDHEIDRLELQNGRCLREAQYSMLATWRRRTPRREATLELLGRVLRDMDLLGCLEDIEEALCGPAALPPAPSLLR
# Excerpt: (§1) Flow cytometry assay technique was used to investigate binding of peptides to TNF-α or TNF-R1 employing U937 cells (a TNF-receptor expressing human leukemia cell line). Binding of peptide to TNF-α prevents TNF-α from interacting with TNF-R1 which can be analyzed by flow cytometry. Similarly, direct binding of peptide with TNF-R1 reduces percent TNF-R1 positive cells which can be analyzed by flow cytometry.
# U937 cells were used to quantify the binding of peptides to TNF-R 1. TNF-alpha upon addition to U937 cells binds to its cognate receptor TNF-R1 on U937 cells leading to a reduction in percent cells positive for TNF-R1. TNF-alpha inhibiting peptides according to present invention bind to TNF-R1 and reduce the TNF-R1 positive cells after incubation of U937 cells with said peptides.
# Peptide of Sequence ID-6 was analyzed for binding of peptide to TNF-R1 on U937 cells using flow cytometry. […] After two washes in binding buffer, the cells were analyzed using FACS Calibur flow cytometer (Becton Dickinson). The gates were set on the live cell population, and the degree of binding to TNF-R1 was calculated on the basis of percent cells positive for TNF-RI expression.
# TNF-alpha [3] = target: T2, TNF-alpha (Homo sapiens, UniProt P01375)
# Method: (§2) The peptides of the present invention were analyzed for inhibition of TNF-alpha induced cytotoxicity employing murine fibroblast cell line, L929. Addition of TNF-alpha to L929 cells (ATCC) induces cytotoxicity, which can be estimated by staining of viable cells with vital dyes like MTT (3-(4,5-Dimethylthiazol-2-yl)-2,5-diphenyltetrazolium bromide, a tetrazole) or crystal violet followed by extraction of dyes with methanol. […] The assay was performed as follows:
# (§3) L929 cells (maintained in Dulbecco's modified Eagle's medium supplemented with 10% FCS) were seeded at a density of 2×10^5 cells/ml in a microtitre plates, and incubated with actinomycin D (ACT-D) at concentration of 1 μg/ml for 2 h at 37° C. and 5% CO2. TNF-α (100 pg/ml) preincubated with 75 μM of peptide solution at 37° C. was added to L929 cells and incubated overnight at 37° C., 5% CO2. […]
# (§4) The live cells of test and positive control plates were then stained with 100 μl/well of 0.05% crystal violet and incubated at room temperature for 15 min., washed with PBS and kept for overnight drying at room temperature. Crystal violet was extracted from the cells by 100 μl per well of methanol and absorbance of extracted crystal violet dye was estimated at 595 nm. Percent inhibition in cytotoxicity was calculated by the following formula: […]
# TNF-alpha [4] = target: T2, TNF-alpha; assay: Inhibition of TNF-α binding to its receptor TNF-R1 on U937 cells (flow cytometry); set-up: host or cells: U937 cells carry the partner receptor endogenously; details: U937 cells with complex of peptide and TNF-alpha (5 ng); untreated 78±1%, TNF-alpha alone 32±10%
# Excerpt: as §1
# TNF-alpha binds to its cognate receptor TNF-R1 on U937 cells (ATCC) leading to a reduction in percent cells positive for TNF-R1. TNF-alpha binding peptides bind to TNF-alpha and prevent the interaction of TNF-alpha with TNF-R1. The percent cells positive for TNF-R1 can be quantified by staining with fluorochrome conjugated anti-TNF-R1 antibody.
# Peptides of Sequence ID-2 and Sequence ID-6 were analyzed for inhibition of TNF-alpha binding to its receptor TNF-R1 on U937 cells. Inhibition of TNF-alpha binding to TNF-RI on U937 cells by peptides with sequence ID-2 or sequence ID-6 was estimated, using fluorescent activated cell sorter (FACS, FACSCALIBUR, Becton Dickinson, USA). […]
# TNF-alpha [5] = target: T2, TNF-alpha; assay: Inhibition of TNF-alpha mediated cytotoxicity of L-929 cells (crystal violet)
# Method: as §2, §3, §4
# [6] = 5 mg/kg i.v. three times in first week then once every week for three weeks, pre vs post treatment, Example 5(d), FIG. 8a
# [7] = 5 mg/kg i.v. three times in first week then once every week for three weeks
# T2 sequence (P01375 77-233 limits assumed, species assumed): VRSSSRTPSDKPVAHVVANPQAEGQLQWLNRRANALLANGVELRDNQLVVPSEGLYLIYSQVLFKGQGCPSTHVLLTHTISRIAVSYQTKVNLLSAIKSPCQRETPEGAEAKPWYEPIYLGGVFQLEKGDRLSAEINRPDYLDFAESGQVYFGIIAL
Compound,"paw thickness [1, 6]","anticollagen IgG1/IgG2a ratio after therapy [1, 7]",clinical score [2],paw thickness [2],also measured
Etanercept [reference compound],significant lowering of paw thickness,lower ratio of IgG1/IgG2a,significant lowering of clinical score,Lowering of paw thickness,
TNF-alpha,,,,,percent cells positive for TNF-R1 (TNF-R1; U937 cells incubated with recombinant TNF-alpha 10 ng): 31.6%
"NC(=O)C[C@H](NC(=O)[C@@H](N)CO)C(=O)N[C@@H](Cc1ccc(O)cc1)C(=O)O [Sequence ID-6, Ser--Asn--Tyr] (H-Ser-Asn-Tyr-OH; N-terminus assumed)",significant lowering of paw thickness,lower ratio of IgG1/IgG2a,significant lowering of clinical score,Lowering of paw thickness,"percent cells positive for TNF-R1 (TNF-R1; U937 cells incubated with peptide 250 μM): 32%; paw thickness ([1]; 5 mg/kg i.v. thrice weekly followed by once every week for 3 wks, Example 5(c), FIG. 7): significant reduction of paw thickness; paw thickness ([1]; 7.5 mg/kg i.v. once every week for 4 wks, Example 5(c), FIG. 7): insignificant lowering of paw thickness; ability to inhibit TNF-alpha induced cytotoxicity compared with Etanercept (TNF-alpha [3]): comparable ability; percent cells positive for TNF-R1 (TNF-alpha [4]): 57±8%"
"CC(C)C[C@@H]1NC(=O)[C@H](Cc2ccc(O)cc2)NC(=O)[C@H](CCC(N)=O)NC(=O)[C@H](CO)NC(=O)[C@H](Cc2c[nH]c3ccccc23)NC(=O)[C@@H](NC(=O)[C@@H](N)Cc2ccc(O)cc2)CSSC[C@@H](C(=O)N[C@@H](Cc2ccc(O)cc2)C(=O)O)NC1=O [Cyclic WSQYL, cy Trp-Ser-Gln-Tyr-Leu CY]",,,,,inhibition at 75 µM (TNF-alpha [5]): 60 ± 10%
